BindingDB's records for patent US9670191 (Nerviano Medical Sciences, 2017)

target: T1, Cell division cycle 7-related protein kinase [58-574]/Protein DBF4 homolog A (Homo sapiens, UniProt O00311); assay: Inhibition Assay of Cdc7 Activity
T1 construct: 58-574
Description: The assay consists of the transfer of radioactivity labeled phosphate moiety by the kinase to an acceptor substrate. The resulting 33P-labeled product is separated from unreacted tracer, transferred into a scintillation cocktail and light emitted is measured in a scintillation counter. The inhibition assay of Cdc7/Dbf4 activity is performed according to the following protocol. The MCM2 substrate is trans-phosphorylated by the Cdc7/Dbf4 complex in the presence of ATP traced with γ33-ATP. The reaction is stopped by addition of Dowex resin in the presence of formic acid. Dowex resin particles capture unreacted γ33-ATP and drag it to the bottom of the well while 33P phosphorylated MCM2 substrate remains in solution. The supernatant is collected, transferred into Optiplate plates and the extent of substrate phosphorylation is evaluated by β counting. The inhibition assay of Cdc7/Dbf4 activity was performed in 96 wells plate according to the following protocol.

T1 sequence (O00311 58-574): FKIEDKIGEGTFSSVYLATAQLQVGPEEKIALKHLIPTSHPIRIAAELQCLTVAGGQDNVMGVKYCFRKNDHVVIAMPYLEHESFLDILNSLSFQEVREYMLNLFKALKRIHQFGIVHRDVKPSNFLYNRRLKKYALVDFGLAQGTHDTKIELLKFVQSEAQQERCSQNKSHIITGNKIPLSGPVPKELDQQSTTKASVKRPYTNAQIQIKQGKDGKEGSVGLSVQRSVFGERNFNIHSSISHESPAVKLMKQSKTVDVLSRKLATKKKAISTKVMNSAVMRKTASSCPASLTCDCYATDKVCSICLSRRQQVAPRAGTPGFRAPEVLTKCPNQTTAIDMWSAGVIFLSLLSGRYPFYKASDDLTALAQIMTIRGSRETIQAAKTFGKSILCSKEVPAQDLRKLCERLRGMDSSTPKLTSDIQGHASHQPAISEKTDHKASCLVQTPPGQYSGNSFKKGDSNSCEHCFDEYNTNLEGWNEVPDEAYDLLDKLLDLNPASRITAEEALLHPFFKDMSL
T1 sequence (Q9UBU7 whole entry, further chain): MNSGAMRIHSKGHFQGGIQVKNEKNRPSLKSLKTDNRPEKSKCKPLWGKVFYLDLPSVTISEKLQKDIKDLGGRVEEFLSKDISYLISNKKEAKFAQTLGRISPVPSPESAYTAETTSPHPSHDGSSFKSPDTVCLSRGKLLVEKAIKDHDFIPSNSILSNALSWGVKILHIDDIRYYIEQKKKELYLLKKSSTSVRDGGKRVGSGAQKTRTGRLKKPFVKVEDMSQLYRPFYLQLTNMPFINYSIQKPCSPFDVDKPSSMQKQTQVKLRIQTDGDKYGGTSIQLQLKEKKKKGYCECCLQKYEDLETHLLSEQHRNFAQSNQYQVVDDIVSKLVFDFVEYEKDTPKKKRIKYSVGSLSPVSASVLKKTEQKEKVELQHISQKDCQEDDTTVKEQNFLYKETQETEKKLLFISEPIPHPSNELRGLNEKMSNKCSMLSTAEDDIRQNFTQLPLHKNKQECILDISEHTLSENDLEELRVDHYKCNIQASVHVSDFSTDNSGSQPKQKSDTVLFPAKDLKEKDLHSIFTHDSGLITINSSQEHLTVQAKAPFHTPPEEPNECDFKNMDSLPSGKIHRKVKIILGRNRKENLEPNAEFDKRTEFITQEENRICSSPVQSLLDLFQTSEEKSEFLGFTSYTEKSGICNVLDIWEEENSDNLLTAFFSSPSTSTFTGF

SMILES | IC50
CNC(=O)c1cc(-c2ccnc(N)n2)[nH]c1-c1ccccc1 [US9670191, M1] | < 1000 nM
NC(=O)c1cc(-c2ccnc(N)n2)sc1-c1ccccc1 [US9670191, S1] | < 1000 nM
NC(=O)c1cc(-c2ccnc(N)n2)[nH]c1-c1ccc2sccc2c1 [US9670191, G15] | < 1000 nM
NC(=O)c1cc(-c2ccnc(N)n2)[nH]c1-c1ccc2ccccc2c1 [US9670191, F6] | < 1000 nM
Cn1c(-c2[nH]c(-c3ccnc(N)n3)cc2C(N)=O)cc2ccccc21 [US9670191, G14] | < 1000 nM
NC(=O)c1cc(-c2ccncc2)[nH]c1-c1cccc([N+](=O)[O-])c1 [US9670191, A14] | < 1000 nM
NC(=O)c1cc(-c2ccnc(N)n2)[nH]c1-c1cccc2ccccc12 [US9670191, F5] | < 1000 nM
NC(=O)c1cc(-c2ccnc(N)n2)[nH]c1-c1ccccn1 [US9670191, G12] | < 1000 nM
NC(=O)c1cc(-c2ccnc(N)n2)[nH]c1-c1cc2ccccc2o1 [US9670191, G9] | < 1000 nM
NC(=O)c1cc(-c2ccncc2)[nH]c1Br [US9670191, R1] | < 1000 nM
Cn1cc(-c2[nH]c(-c3ccnc(N)n3)cc2C(N)=O)c2ccccc21 [US9670191, G13] | < 1000 nM
NC(=O)c1c(-c2ccccc2)[nH]c(-c2ccnc(N)n2)c1Cl [US9670191, Z1] | < 1000 nM
NC(=O)c1cc(-c2nc(N)ncc2F)[nH]c1-c1ccccc1 [US9670191, V1] | < 1000 nM
NC(=O)c1c(-c2ccccc2)[nH]c(-c2ccnc(N)n2)c1I [US9670191, N3] | < 1000 nM
NC(=O)c1cc(-c2ccncc2)[nH]c1-c1ccncc1 [US9670191, C3] | < 1000 nM
NC(=O)c1cc(-c2ccncc2)[nH]c1C1CCNCC1 [US9670191, Q3] | < 1000 nM
NC(=O)c1cc(-c2ccnc(N)n2)[nH]c1-c1cc2ccccc2s1 [US9670191, G5] | < 1000 nM
N#Cc1cccc(-c2[nH]c(-c3ccncc3)cc2C(N)=O)c1 [US9670191, A23] | < 1000 nM
NC(=O)c1cc(-c2ccncc2)[nH]c1-c1ccccc1[N+](=O)[O-] [US9670191, A13] | < 1000 nM
NC(=O)c1cc(-c2ccnc(N)n2)[nH]c1-c1cccs1 [US9670191, G2] | < 1000 nM
NC(=O)c1cc(-c2ccncc2)[nH]c1C1CCCCC1 [US9670191, Q1] | < 1000 nM
C=Cc1c(-c2ccnc(N)n2)[nH]c(-c2ccccc2)c1C(N)=O [US9670191, O1] | < 1000 nM
CC(C)(C)OC(=O)N1CCC(c2[nH]c(-c3ccncc3)cc2C(N)=O)CC1 [US9670191, Q2] | < 1000 nM
NC(=O)c1cc(-c2ccncc2)[nH]c1-c1ccc([N+](=O)[O-])cc1 [US9670191, A15] | < 1000 nM
NC(=O)c1cc(-c2ccnc(N)n2)[nH]c1-c1csc2ccccc12 [US9670191, G6] | < 1000 nM
NC(=O)c1c[nH]c(-c2ccncc2)c1 [US9670191, P1] | < 1000 nM
NC(=O)c1cc(-c2ccnc(N)n2)oc1-c1ccccc1 [US9670191, T1] | < 1000 nM
